Experimental data as given in ChEMBL document CHEMBL3813652, “Arabinoamidine synthesis and its inhibition toward β-glucosidase (sweet almonds) in comparison to a library of galactonoamidines” (Bioorg Med Chem, 2016).
Active and inactive are the calls of the source. No cut-off for these calls is given here.

Columns and labels:
[1] = Inhibition of sweet almond beta-glucosidase assessed as enzymatic hydrolysis of 2-chloro-4-nitrophenyl beta-D-glucopyranoside preincubated with substrate for 20 mins followed by protein addition by UV-visible spectroscopy; parameters: species or system Prunus dulcis
[2] = Inhibition of sweet almond beta-glucosidase assessed as enzyme mediated hydrolysis of 2-chloro-4-nitrophenyl beta-D-glucopyranoside preincubated with substrate for 30 mins followed by protein addition measured every 10 secs for 10 mins by UV-visible spectroscopy; parameters: species or system Prunus dulcis
[3] = system: Prunus dulcis; assay: Competitive inhibition of sweet almond beta-glucosidase assessed as enzymatic hydrolysis of 2-chloro-4-nitrophenyl beta-D-glucopyranoside at 200 and 1200 uM by Lineweaver-Burk plot
[4] = system: Prunus dulcis; assay: Competitive inhibition of sweet almond beta-glucosidase assessed as enzymatic hydrolysis of 2-chloro-4-nitrophenyl beta-D-glucopyranoside at 0.0125 and 0.025 uM by Lineweaver-Burk plot

| Structure (SMILES) | IC50 [1] | Ki [2] | inhibition [3] | inhibition [4] |
| --- | --- | --- | --- | --- |
| CO[C@@H]1[C@H](O)[C@@H](O)C(NCc2ccc(C)cc2)=N[C@@H]1CO | > 5000 µM | 13 µM | – | – |
| OC[C@H]1N/C(=N\Cc2ccccc2F)[C@H](O)[C@@H](O)[C@H]1O | 1.8 µM | 118 µM | – | – |
| OC[C@H]1N/C(=N\CC2CCCCCC2)[C@H](O)[C@@H](O)[C@H]1O | 5 µM | 27.1 µM | – | – |
| Cc1ccc(CNC2=N[C@H](CO)[C@@H](O)[C@@H]2O)cc1 | 6200 µM | 970 µM | Active | Active |
| CO[C@H]1C(NCc2ccc(C)cc2)=N[C@H](CO)[C@H](O)[C@@H]1O | > 5000 µM | 5 µM | – | – |
| CCCCCCCCCCCC/N=C1\N[C@H](CO)[C@H](O)[C@H](O)[C@H]1O | 0.4 µM | 20.5 µM | – | – |
| CCC/N=C1\N[C@H](CO)[C@H](O)[C@H](O)[C@H]1O | 4.8 µM | 18.7 µM | – | – |
| Cc1cccc(C/N=C2\N[C@H](CO)[C@H](O)[C@H](O)[C@H]2O)c1 | 5.1 µM | 293 µM | – | – |
| CCCCC(CC)CNC1=N[C@H](CO)[C@H](O)[C@H](O)[C@H]1O (stereo partly drawn) | 2.5 µM | 17.2 µM | – | – |
| OC[C@H]1N/C(=N\Cc2ccc(F)cc2)[C@H](O)[C@@H](O)[C@H]1O | 4.7 µM | 57.5 µM | – | – |
| COc1ccc(C/N=C2\N[C@H](CO)[C@H](O)[C@H](O)[C@H]2O)cc1 | 13 µM | 55.9 µM | – | – |
| OC[C@H]1N/C(=N\Cc2ccccc2)[C@H](O)[C@@H](O)[C@H]1O | 2.8 µM | 108 µM | – | – |
| OC[C@H]1N/C(=N\CC2CCCCC2)[C@H](O)[C@@H](O)[C@H]1O | 1.6 µM | 49.2 µM | – | – |

The remaining lines, values ahead:

| IC50 [1] | Ki [2] | inhibition [3] | inhibition [4] | Structure (SMILES) |
| --- | --- | --- | --- | --- |
| 32 µM | 11.8 µM | – | – | OC[C@H]1N/C(=N\C2CC2)[C@H](O)[C@@H](O)[C@H]1O |
| 11 µM | 124 µM | – | – | OC[C@H]1N/C(=N\Cc2cccc(F)c2)[C@H](O)[C@@H](O)[C@H]1O |
| > 1000 µM | – | – | – | O=C1N[C@H](CO)[C@H](O)[C@H](O)[C@H]1O |
| 8.4 µM | 26.2 µM | – | – | Cc1ccccc1C/N=C1\N[C@H](CO)[C@H](O)[C@H](O)[C@H]1O |
| 1.3 µM | 28.1 µM | – | – | OC[C@H]1N/C(=N\CCCc2ccccc2)[C@H](O)[C@@H](O)[C@H]1O |
| > 5000 µM | – | – | – | OC[C@H]1N/C(=N\C2CCCCC2)[C@H](O)[C@@H](O)[C@H]1O |
| > 1000 µM | – | – | – | N=C1N[C@H](CO)[C@H](O)[C@H](O)[C@H]1O |
| 2.8 µM | 87.9 µM | – | – | OC[C@H]1N/C(=N\Cc2ccc(C(F)(F)F)cc2)[C@H](O)[C@@H](O)[C@H]1O |
| 2.2 µM | 29.6 µM | – | – | CCCCCCC/N=C1\N[C@H](CO)[C@H](O)[C@H](O)[C@H]1O |
| 3 µM | 0.026 µM | Active | Active | Cc1ccc(C/N=C2\N[C@H](CO)[C@H](O)[C@H](O)[C@H]2O)cc1 |
| > 5000 µM | 7.7 µM | – | – | Cc1ccc(CNC2=N[C@H](CO)[C@H](O)[C@H](O)C2)cc1 |
| 2.3 µM | 14.7 µM | – | – | CC(C)(C)c1ccc(C/N=C2\N[C@H](CO)[C@H](O)[C@H](O)[C@H]2O)cc1 |
| 19 µM | 11.5 µM | – | – | OC[C@H]1N/C(=N\CC2CC2)[C@H](O)[C@@H](O)[C@H]1O |
